The supplement of paper PMC13380429

Legend:
[1] = system: Vero E6; experiment: cell viability relative to DMSO; higher = less toxic; conditions: 72 h
[2] = system: U2OS; experiment: as above; conditions: 72 h
[3] = system: Calu-3; experiment: as above; conditions: 72 h
[4] = system: HepG2; experiment: as above; conditions: 72 h
[5] = system: Caco-2; experiment: as above; conditions: 72 h
[6] = system: Vero E6; experiment: relative viability EC50 (midpoint between 100% and the lowest measured viability); higher = less toxic; conditions: 72 h
[7] = system: U2OS; experiment: as above; conditions: 72 h
[8] = system: Vero E6; experiment: drug sensitivity score (DSS) for viability; higher = more toxic; extreme values may be limits of the assay; conditions: 72 h
[9] = system: U2OS; experiment: as above; conditions: 72 h
[10] = system: Calu-3; experiment: as above; conditions: 72 h
[11] = system: HepG2; experiment: as above; conditions: 72 h
[12] = system: Caco-2; experiment: as above; conditions: 72 h
[13] = system: A549-ACE2 infected with SARS-CoV-2; experiment: SARS-CoV-2 infection rate relative to DMSO; higher = more infection; conditions: 24 h
[14] = system: A549-ACE2; experiment: drug-induced phospholipidosis relative to tamoxifen; higher = more phospholipidosis
[15] = system: A549-ACE2 infected with SARS-CoV-2; experiment: cell count relative to DMSO; higher = less toxic; conditions: 24 h
[16] = system: A549-ACE2 infected with SARS-CoV-2; experiment: morphology score (similarity to uninfected cells); higher = more like uninfected cells; conditions: 24 h
[17] = system: Calu-3; experiment: relative viability EC50 (midpoint between 100% and the lowest measured viability); higher = less toxic; conditions: 72 h
[18] = system: HepG2; experiment: as above; conditions: 72 h
[19] = system: Caco-2; experiment: as above; conditions: 72 h

CC(C)n1cnc2c(NCCc3ccc(O)cc3)nc(-c3csc4ccccc34)nc21 [stemregenin-1]
Conditions | SARS-CoV-2 infection rate, [13] [%] | cell count, [15] [%] | cell viability, [1] [%] | cell viability, [2] [%] | cell viability, [3] [%] | cell viability, [4] [%] | cell viability, [5] [%] | morphology score, [16]
1 nM | – | – | 99.4 | 103 | 99.6 | 92.7 | 92.3 | –
10 nM | – | – | 101 | 101 | 109 | 91.9 | 104 | –
100 nM | – | – | 104 | 95.1 | 101 | 97.4 | 87.3 | –
0.3 µM | 93 | 101 | – | – | – | – | – | 0.34
1000 nM | – | – | 100 | 96.3 | 80.4 | 91.6 | 99.3 | –
3 µM | 84 | 103 | – | – | – | – | – | 0.46
10000 nM | – | – | 85.7 | 80.7 | 54.3 | 70.7 | 54 | –
10 µM | 60 | 117 | – | – | – | – | – | 0.84
30 µM | 26 | 45 | – | – | – | – | – | 0

Conditions | drug sensitivity score | relative viability EC50 [µM]
[6] | – | > 10
[7] | – | > 10
[8] | 0.2 | –
[9] | 1 | –
[10] | 5 | –
[11] | 2.3 | –
[12] | 2.5 | –

drug-induced phospholipidosis [%], [14]
Conditions | 0.3 µM | 0.833333 µM | 3.33333 µM | 6.66667 µM | 10 µM | 30 µM
24 h | 6.01 | 1.64 | 8.25 | 15.8 | 28.5 | 16.7
48 h | 9.44 | 5.9 | 8.13 | 14.7 | 21.9 | –
72 h | 7.3 | 7.32 | 13.4 | 21.2 | 27 | –

COc1ccc(CCO[C@@H]2CCCC[C@H]2N2CC[C@@H](O)C2)cc1OC [vernakalant]
cell viability [%]
Conditions | [1] | [2] | [3] | [4] | [5]
1 nM | 97.8 | 102 | 111 | 89.2 | 101
10 nM | 97.3 | 94.1 | 97.1 | 112 | 91.2
100 nM | 91.7 | 103 | 106 | 99.2 | 93.9
1000 nM | 98.6 | 95.2 | 104 | 100 | 101
10000 nM | 106 | 101 | 109 | 110 | 106

Conditions | drug sensitivity score | relative viability EC50 [µM]
[6] | – | > 10
[7] | – | > 10
[8] | 0 | –
[9] | 0 | –
[10] | 0 | –
[11] | 0 | –
[12] | 0 | –
[17] | – | > 10
[18] | – | > 10
[19] | – | > 10

OCc1cc([C@@H](O)CNCCCCCCOCCOCc2c(Cl)cccc2Cl)ccc1O [vilanterol]
cell viability [%]
Conditions | [1] | [2] | [3] | [4] | [5]
1 nM | 95.3 | 96.8 | 99 | 97.8 | 94
10 nM | 99.7 | 96.1 | 100 | 96.5 | 93.5
100 nM | 89.2 | 101 | 89.8 | 89.5 | 96
1000 nM | 98.9 | 100 | 102 | 104 | 96.2
10000 nM | 107 | 94 | 97 | 109 | 94.3

Conditions | drug sensitivity score | relative viability EC50 [µM]
[6] | – | > 10
[7] | – | > 10
[8] | 0 | –
[9] | 0 | –
[10] | 0 | –
[11] | 0 | –
[12] | 0 | –
[17] | – | > 10
[18] | – | > 10
[19] | – | > 10

CC1(CN2CCC(n3c(=O)[nH]c4ccccc43)CC2)OCc2ccccc2-n2cccc21 (stereo not given) [zaldaride]
cell viability [%]
Conditions | [1] | [2] | [3] | [4] | [5]
1 nM | 98.9 | 102 | 86.3 | 94.9 | 99.6
10 nM | 97.7 | 94.6 | 96.1 | 96.4 | 91.6
100 nM | 98.7 | 98 | 101 | 86.6 | 101
1000 nM | 100 | 95.7 | 84.7 | 104 | 88.1
10000 nM | 89.9 | 99.1 | 94.5 | 76 | 93.1

Conditions | drug sensitivity score | relative viability EC50 [µM]
[6] | – | > 10
[7] | – | > 10
[8] | 0 | –
[9] | 0 | –
[10] | 0 | –
[11] | 0.7 | –
[12] | 0 | –
[17] | – | > 10
[18] | – | > 10
[19] | – | > 10

C[C@H](CSC(=O)c1ccccc1)C(=O)N1C[C@@H](Sc2ccccc2)C[C@H]1C(=O)O [zofenopril-calcium]
cell viability [%]
Conditions | [1] | [2] | [3] | [4] | [5]
1 nM | 114 | 98.4 | 92.9 | 101 | 86.1
10 nM | 99.9 | 102 | 90.7 | 108 | 94.3
100 nM | 103 | 99.6 | 105 | 94.7 | 106
1000 nM | 101 | 95.1 | 96 | 102 | 96.6
10000 nM | 106 | 101 | 88.3 | 95.3 | 99.6

Conditions | drug sensitivity score | relative viability EC50 [µM]
[6] | – | > 10
[7] | – | > 10
[8] | 0 | –
[9] | 0 | –
[10] | 0.2 | –
[11] | 0 | –
[12] | 0 | –
[17] | – | > 10
[18] | – | > 10
[19] | – | > 10

Cc1nn(C)c2c1C(c1cccc(Cl)c1)=NCCN2 [zometapine]
cell viability [%]
Conditions | [1] | [2] | [3] | [4] | [5]
1 nM | 104 | 95.6 | 102 | 93.3 | 95.7
10 nM | 105 | 105 | 104 | 105 | 86.7
100 nM | 98 | 98.4 | 99.8 | 99.9 | 82.4
1000 nM | 97.8 | 102 | 101 | 106 | 117
10000 nM | 95.1 | 96.9 | 98.2 | 89 | 105

Conditions | drug sensitivity score | relative viability EC50 [µM]
[6] | – | > 10
[7] | – | > 10
[8] | 0 | –
[9] | 0 | –
[10] | 0 | –
[11] | 0 | –
[12] | 0 | –
[17] | – | > 10
[18] | – | > 10
[19] | – | > 10
